From patent publication US12357603B2, “Acyl sulfonamides for treating cancer” (Bayer Aktiengesellschaft, priority 2019, dated 2025)

Tests used:
MDA-MB-436 cells = test: Proliferation assay MDA-MB-436, negative control cell line (Alamar Blue, 144 h); type: cell-based; conditions: Homo sapiens, MDA-MB-436, 144 h, arithmetic mean
Excerpt: (§1) Proliferation Assays for Compound Characterization
(§2) For compound characterization cell survival assays were routinely run in two cell lines. ZR-75-1 is a breast carcinoma cell line containing a focal KAT6A amplification and high KAT6A protein expression. Proliferation of this cell line is inhibited upon treatment with KAT6A inhibitors. As a negative control cell line MDA-MB-436 were used. These cells carry a […] deletion of the KAT6A gene, have a low KAT6A protein expression and are not growth inhibited upon treatment with KAT6A inhibitors.
(§3) For measurements cell lines were plated at the below indicated concentration per […] in 96-well plates in a humidified incubator at 37° C. and 5% CO2.
MDA-MB-436 (CLS, 300278; breast adenocarcinoma); 3000 cells per well; culture medium: DMEM/Ham's F12 (Biochrom #FG 4815) medium containing 2.5% FBS (Biochrom #S0615).
(§4) 24 hours later, cells were treated with compounds (stock solution, 10 mM in DMSO) using the HP D300 Digital Dispenser in a concentration range of 2.0×10E-5 M to 2.0×10E-9 M in a single-dot curve with 9 dilutions and a DMSO concentration of 0.2%. Each sample was prepared as triplicate and rim wells were excluded. Plates were incubated at 37° C. and 5% CO2 for 144 h. Cell viability was measured by adding 10 μL of Alamar Blue Reagent (Invitrogen #DAL 1100) and plates were incubated for 2 h at 37° C. and 5% CO2. Fluorescence was measured at 590 nm wavelength with a Tecan Spark or Victor X3 MTP-Reader (PerkinElmer).

[1] = test system: ESR1 transcription (luciferase signal in MVLN cells); test: Repression of ESR1 transcription, luciferase reporter in MVLN cells; type: cell-based; conditions: Homo sapiens, MVLN, inhibition of luciferase signal in MVLN cells; arithmetic mean
Excerpt: Repression of ESR1 Transcription Upon Treatment of Cells with Compounds
KAT6A controls transcription of the ESR1 gene in breast cancer cells. Compound treatment that interferes with this mechanism was quantified using MVLN cells. These cells constitutively express the ER and are stably transfected with the luciferase (LUC) reporter gene and the corresponding hormone responsive element derived from the 5′-flanking region of the Xenopus Vitellogenin A2 gene (Pons et al., 1990, Demirpense et al., 1993, Joyeux et al., 1993). The repressive effect on ERα transcription activity of a test chemical is directly related to the luciferase measured in the lysate of treated MVLN cells.
Each sample was prepared as duplicate and rim wells were excluded. For luciferase signal determination 100 μl of a 1:1 mixture of Steadylite plus (Perkin Elmer; 6016759) and assay medium was added after 24 h for 15 minutes and measured in Victor X3 (Perkin Elmer). To exclude any effects caused by cell loss during the treatment, cell density was determined using Alamar Blue (Invitrogen; DAL1100). Prior to the luciferase measurement 10 μl Alamar Blue were added to each well and the plates were incubated for 2 h in the incubator. Then fluorescence was measured with Victor X3 (Perkin Elmer) at 530 nm/590 nm.

[2] = target: Recombinant human His-tagged Kat6a protein (amino acids 194-810) (Homo sapiens (Human), UniProt Q92794); test: Kat6a activity assay (TR-FRET, acetylation of biotinylated Histone-H4-derived peptide); type: biochemical; conditions: 60 mins at 22° C., read-out: KAT6A-DPF/HAT domain IC50 [mol/l] (arithmetic mean)
Excerpt: Kat6a inhibitory activities of the compounds described in the present invention were quantified using a Fluorescence Resonance Energy Transfer (TR-FRET) assay which measures acetylation of a synthetic, biotinylated Histone-H4-derived peptide by the enzyme.
Recombinant human His-tagged Kat6a protein (amino acids 194-810), was purified in-house from Baculovirus-infected insect cells (Sf9). Histone H4 peptide (amino acids 1-24, […]-VLRD-K(Btn)-amide), which was used as substrate, was synthesized by Biosyntan GmbH, Berlin, Germany. Acetyl Coenzyme A was purchased from Sigma-Aldrich (#A-2056).
Kat6a was incubated for 60 mins at 22° C. in the presence of different concentrations of test substances (0 μM, and within the range 0.01-20 μM) in assay buffer [25 mM Tris/HCl pH 8, 1 mM EGTA, 2.5 mM Glutathion, 0.02% Chicken Albumin, 0.05% Pluronic F127, 25 mM NaCl, 220 nM H4 peptide and 600 nM Acetyl Coenzym A].
The reaction was stopped by addition of Detection Solution (25 mM HEPES pH 7.5, 0.1% BSA, 22 nM SAXL665 (Cisbio #610SAXLE), 100 μM Anacardic Acid (Enzo #ALX-270-381), 1 nM Anti-Histone H4 (ACETYL K8) Antibody (ABCAM #AB15823) and 0.5 nM Anti-Rabbit IgG Eu (Perkin Elmer #AD0083).
The fluorescence emission at 620 nm and 665 nm after excitation at 330-350 nm was measured in a TR-FRET measuring instrument, for instance a Rubystar or a Pherastar (both from BMG Lab Technologies, Offenburg, Germany) or a Viewlux (Perkin-Elmer). The ratio of the emission at 665 nm and at […] was used as indicator of the amount of acetylated peptide.
The resulting data (ratio) were normalized, taking 0% inhibition as the mean value of control measurements where all reagents were included. In this case 50 nl DMSO were used instead of compounds. […] IC50 values were determined by regression analysis based on a 4 parameter equation (minimum, maximum, ICM, Hill; Y=Max+(Min−Max)/(1+(X/ICso) Hill) using the Screener Software (Genedata).
Table 5 depicts the IC50 values of selected examples in biochemical KAT6A and KAT6B3 assays.

ZR-75-1 cells = test: Proliferation assay ZR-75-1 (Alamar Blue, 144 h); type: cell-based; conditions: Homo sapiens, ZR-75-1, 144 h, arithmetic mean, read-out: ZR75-1 proliferation assay, EC50 [M] (arithmetic mean)
Excerpt: as §1, §2, §3
ZR-75-1 (ATCC, CRL-1500; breast carcinoma); 3000 cells per well; culture medium: RPMI 1640 (Biochrom #FG 1215) medium containing 2.5% FBS (Biochrom #S0615).
as §4

Recombinant human His-tagged Kat6a protein (amino acids 194-810), sequence (Q92794 194-810): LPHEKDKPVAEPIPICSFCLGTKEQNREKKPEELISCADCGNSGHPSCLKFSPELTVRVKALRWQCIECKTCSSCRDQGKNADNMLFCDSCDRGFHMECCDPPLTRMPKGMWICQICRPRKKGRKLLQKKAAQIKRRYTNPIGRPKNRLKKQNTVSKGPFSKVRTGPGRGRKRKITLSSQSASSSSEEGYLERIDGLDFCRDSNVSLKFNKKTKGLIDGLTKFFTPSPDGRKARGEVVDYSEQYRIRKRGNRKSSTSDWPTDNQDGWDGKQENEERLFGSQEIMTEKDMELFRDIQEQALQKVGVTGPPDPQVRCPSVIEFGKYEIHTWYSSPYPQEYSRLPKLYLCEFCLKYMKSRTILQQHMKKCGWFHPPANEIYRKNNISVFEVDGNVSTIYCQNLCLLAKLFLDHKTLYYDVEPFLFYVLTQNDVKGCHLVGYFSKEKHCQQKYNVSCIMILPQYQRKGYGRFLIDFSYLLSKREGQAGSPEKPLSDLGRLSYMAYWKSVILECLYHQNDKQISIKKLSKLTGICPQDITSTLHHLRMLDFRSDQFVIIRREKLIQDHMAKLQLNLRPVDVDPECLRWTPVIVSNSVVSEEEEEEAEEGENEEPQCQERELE

Row | EC50 (MDA-MB-436 cells) [nM] | IC50 [1] [nM] | IC50 [2] [nM] | SMILES | EC50 (ZR-75-1 cells) [M]
1 | > 20000 | > 20000 | 3170 | CC1CCCN1c1ccc2cc(C(=O)NS(=O)(=O)c3ccccc3-c3ccccc3)oc2c1 (racemic) [Example 44, N-([1,1′-Biphenyl]-2-sulfonyl)-6-[2-methylpyrrolidin-1-yl]-1-benzofuran-2-carboxamide (rac)] | > 2e-05
2 | > 20000 | 68.6 | 57.9 | CC(Oc1ccccc1S(=O)(=O)NC(=O)c1cc2ccc(N(C)C)cc2o1)C(F)(F)F (racemic) [Example 135, 6-(Dimethylamino)-N-(2-[-1,1,1-trifluoropropan-2-yl)oxy]benzene-1-sulfonyl)-1-benzofuran-2-carboxamide (rac)] | 1.46e-07
3 | > 20000 | 22.1 | 4.4 | CCOc1ccc(C(C)CC)cc1S(=O)(=O)NC(=O)c1cc2ccc(N(C)C)cc2o1 (racemic) [Example 170, 6-(Dimethylamino)-N-(2-ethoxy-5-sec-butyl-phenyl)sulfonyl-benzofuran-2-carboxamide (rac)] | 3.02e-08
4 | > 20000 | 1750 | 134 | CN(C)c1ccc2cc(C(=O)NS(=O)(=O)c3ccc(Cl)cc3Cl)oc2c1 [Example 27, N-(2,4-Dichlorobenzene-1-sulfonyl)-6-(dimethylamino)-1-benzofuran-2-carboxamide] | 1.73e-06
5 | > 20000 | 488 | 150 | CN1Cc2cccc(S(=O)(=O)NC(=O)c3cc4ccc(N(C)C)cc4o3)c2C1=O [Example 95, 6-(Dimethylamino)-N-(2-methyl-3-oxo-2,3-dihydro-1H-isoindole-4-sulfonyl)-1-benzofuran-2-carboxamide] | 7.18e-07
6 | > 20000 | 556 | 260 | CN(C)c1ccc2cc(C(=O)NS(=O)(=O)c3ccccc3OC(F)(F)C(F)(F)F)oc2c1 [Example 96, 6-(Dimethylamino)-N-[2-(pentafluoroethoxy)benzene-1-sulfonyl]-1-benzofuran-2-carboxamide] | 1e-06
7 | > 20000 | 571 | 465 | CN(C)c1ccc2cc(C(=O)NS(=O)(=O)c3c(Cl)cccc3C(F)(F)F)oc2c1 [Example 97, N-[2-Chloro-6-(trifluoromethyl)benzene-1-sulfonyl]-6-(dimethylamino)-1-benzofuran-2-carboxamide] | 6.15e-07
8 | > 20000 | 672 | 645 | CN(C)c1ccc2cc(C(=O)NS(=O)(=O)c3ccccc3)oc2c1 [Example 99, N-(benzenesulfonyl)-6-(dimethylamino)-1-benzofuran-2-carboxamide] | 6.63e-07
9 | > 20000 | 974 | 177 | Cc1cc(Cn2cccn2)cc(S(=O)(=O)NC(=O)c2cc3ccc(N(C)C)cc3o2)c1C [Example 100] | 1.12e-06
10 | > 20000 | 1470 | 489 | CCc1ccc(Cn2cccn2)cc1S(=O)(=O)NC(=O)c1cc2ccc(N(C)C)cc2o1 [Example 102, 6-(Dimethylamino)-N-{2-ethyl-5-[(1H-pyrazol-1-yl)methyl]benzene-1-sulfonyl}-1-benzofuran-2-carboxamide] | 1.95e-06
11 | > 20000 | 2950 | 1210 | COc1cc(S(=O)(=O)NC(=O)c2cc3ccc(N(C)C)cc3o2)cc(Cn2cccn2)c1OC [Example 103, N-{3,4-Dimethoxy-5-[(1H-pyrazol-1-yl)methyl]benzene-1-sulfonyl}-6-(dimethylamino)-1-benzofuran-2-carboxamide] | 2.6e-06
12 | > 20000 | 3190 | 1100 | CCc1ccccc1S(=O)(=O)NC(=O)c1cc2ccc(N(C)C)cc2o1 [Example 104, 6-(Dimethylamino)-N-(2-ethylbenzene-1-sulfonyl)-1-benzofuran-2-carboxamide] | 3e-06
13 | > 20000 | 11600 | 1960 | Cc1cccnc1CS(=O)(=O)NC(=O)c1cc2ccc(N(C)C)cc2o1 [Example 105, 6-(Dimethylamino)-N-[(3-methylpyridin-2-yl)methanesulfonyl]-1-benzofuran-2-carboxamide] | 3.72e-06
14 | > 18600 | 9.1 | 4.6 | Cc1ccc2cccc(S(=O)(=O)NC(=O)c3cc4c(F)cc(N(C)C)cc4o3)c2n1 [Example 108, 6-(Dimethylamino)-4-fluoro-N-(2-methylquinoline-8-sulfonyl)-1-benzofuran-2-carboxamide] | 8.07e-08
15 | > 20000 | 9.67 | 7.09 | CC(C)Oc1ccccc1S(=O)(=O)NC(=O)c1cc2c(F)cc(N(C)C)cc2o1 [Example 109, 6-(Dimethylamino)-4-fluoro-N-{2-[(propan-2-yl)oxy]benzene-1-sulfonyl}-1-benzofuran-2-carboxamide] | 3.7e-08
16 | > 20000 | 555 | 52.4 | CN(C)c1ccc2cc(C(=O)NS(=O)(=O)c3ccc(Br)cc3OC(F)(F)F)oc2c1 [Example 118, N-[4-Bromo-2-(trifluoromethoxy)benzene-1-sulfonyl]-6-(dimethylamino)-1-benzofuran-2-carboxamide] | 9.57e-07
17 | > 20000 | 14600 | – | CC(C)Oc1ccccc1S(=O)(=O)NC(=O)c1cc2cc(Br)c(N(C)C)cc2o1 [Example 208, 5-Bromo-6-(dimethylamino)-N-{2-[(propan-2-yl)oxy]benzene-1-sulfonyl}-1-benzofuran-2-carboxamide] | 1.83e-05
18 | > 20000 | 9880 | – | CCOc1ccc(Br)cc1S(=O)(=O)NC(=O)c1cc2ccc(N(C)CCOC)cc2o1 [Example 213, N-(5-Bromo-2-ethoxybenzene-1-sulfonyl)-6-[(2-methoxyethyl)(methyl)amino]-1-benzofuran-2-carboxamide] | 8.48e-06
